Structures are written as SMILES.

The target in test [1] is FGFR3-BAIAP2L1 Ba/F3 cells (Homo sapiens, UniProt P22607). Briefly: Ba/F3 cell viability assay (CellTiter-Glo 2.0), FGFR3-BAIAP2L1 Ba/F3. The class given is cell-based. As to conditions: for Ba/F3 FGFR1/FGFR3 Selectivity: FGFR3 > FGFR1 selectivity ratio in Ba/F3 FGFR fusion cell based assays; for IC50: read-out: Ba/F3 Cells FGFR3 (IC50 nM), FGFR3-BAIAP2L1 Ba/F3 cells, 48 hours, Cell Titer Glo 2.0. An excerpt:
(§1) Experimental Purpose: Recombinant kinase fusions are transduced into parental Ba/F3, which becomes dependent upon this constitutive kinase activity for IL3-independent survival. Inhibition of kinase activity leads to cell death, which is monitored using CellTiter-Glo® 2.0 (Promega) which measures intracellular ATP concentration that in turn serves as a marker for viability. FGFR1-BCR Ba/F3 and FGFR3-BAIAP2L1 Ba/F3 were obtained from Advanced Cellular Dynamics (Seattle, WA)
(§2) Cell Viability Assay Procedure: Cell Titer-Glo® 2.0 Luminescent cell viability assay reagent was purchased from Promega (Madison, WI). FGFR1-BCR Ba/F3 and FGFR3-BAIAP2L1 Ba/F3 cells were cultured in RPMI1640 media supplemented with 10% fetal bovine serum. Cultures were maintained at 37° C. in a humidified atmosphere of 5% C02 and 95% air.
(§3) Cells were plated in 96-well clear bottom/white plates (Corning #3903) at 10,000 cells/well in 100 μl of media, incubated overnight. The next day, test compound DMSO stock solutions were made at 10 mM and 2 μM final concentration. Compounds were then added to cells in a 9-dose, 10-fold dilution series starting at 30 μM with an HP 300e Digital Dispenser (each dose was applied in triplicate). DMSO was backfilled to each well up to 301 nL total volume of test compound+DMSO, and a total of 301 nL DMSO was added to a control/no test compound well in triplicate. The cells in cell culture plates were incubated with the compounds at 37° C. and 5% C02 for 48 hours. Then 50 μl of Cell Titer Glo 2.0 reagent was added to each well of the cell culture plates. The contents were covered from light and mixed on an orbital shaker at room temperature for 10 min. Luminescence was recorded by a Synergy H1 Microplate Reader (Biotek, Winooski, VT). Cells were assessed as a percentage of DMSO only treated control cells. Curves were plotted and IC50 values were calculated using the GraphPad Prism 8 program based on a sigmoidal dose-response equation (4 parameter).

A further test deals with FGFR1-BCR Ba/F3 cells (Homo sapiens, UniProt P11362). Briefly: Ba/F3 cell viability assay (CellTiter-Glo 2.0), FGFR1-BCR Ba/F3. The class given is cell-based. As to conditions: read-out: Ba/F3 Cells FGFR1 (IC50 nM), 48 hours, Cell Titer Glo 2.0.
Sequence of FGFR1-BCR Ba/F3 cells (P11362 22-822 limits assumed, change not shown): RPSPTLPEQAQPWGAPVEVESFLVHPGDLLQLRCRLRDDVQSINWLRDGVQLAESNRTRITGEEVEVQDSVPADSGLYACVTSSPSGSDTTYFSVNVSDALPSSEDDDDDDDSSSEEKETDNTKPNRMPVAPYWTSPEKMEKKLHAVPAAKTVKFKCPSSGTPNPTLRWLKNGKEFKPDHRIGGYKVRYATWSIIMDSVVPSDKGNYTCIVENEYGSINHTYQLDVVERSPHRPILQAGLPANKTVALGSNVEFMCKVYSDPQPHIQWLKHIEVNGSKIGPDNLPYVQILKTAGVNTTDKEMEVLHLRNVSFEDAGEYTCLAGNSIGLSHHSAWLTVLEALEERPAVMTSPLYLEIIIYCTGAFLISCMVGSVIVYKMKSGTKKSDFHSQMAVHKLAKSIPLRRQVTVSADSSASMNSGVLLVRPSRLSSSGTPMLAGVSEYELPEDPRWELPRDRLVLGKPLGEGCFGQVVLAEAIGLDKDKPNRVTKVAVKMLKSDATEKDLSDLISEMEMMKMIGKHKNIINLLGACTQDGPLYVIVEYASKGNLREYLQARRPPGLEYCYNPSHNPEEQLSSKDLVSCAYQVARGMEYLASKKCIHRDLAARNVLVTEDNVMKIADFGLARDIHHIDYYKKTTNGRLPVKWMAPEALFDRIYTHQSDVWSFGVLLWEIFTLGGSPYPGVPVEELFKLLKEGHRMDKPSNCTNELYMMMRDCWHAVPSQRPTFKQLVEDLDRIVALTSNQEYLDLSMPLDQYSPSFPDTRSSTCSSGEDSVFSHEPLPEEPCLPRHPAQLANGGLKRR
Excerpt: as §1, §2, §3

A further test has as its target FGFR2 (Homo sapiens (Human), UniProt P21802). Kind of test: Kinase assay, binding constants (Kd), kinase-tagged T7 phage, qPCR. The gist of the method: (§4)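 Kinase-tagged T7 phage (grown in BL21-derived E. coli) competed with test compound for immobilized biotinylated ligand on streptavidin beads. Kds came from an 11-point 3-fold dilution series at 0.9% final DMSO. Bound kinase was eluted with non-biotinylated ligand and quantified by qPCR, with Hill slope fixed at −1.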

The next test has as its target FGFR3 (V555M) (Homo sapiens (Human), UniProt P22607, V555M). The description is as above. As to conditions: V555M mutant. The method in brief:
as §4

For another test, the target named is FGFR4 (Homo sapiens (Human), UniProt P22455). The test is described as above. The method in brief:
as §4

Another test concerns the target FGFR1 (Homo sapiens (Human), UniProt P11362). Described as above. The gist of the method: as §4
The target in a further test is FGFR3 (Homo sapiens (Human), UniProt P22607). The test is described as above. The method in brief: as §4
Sequence of FGFR3 (P22607 23-806): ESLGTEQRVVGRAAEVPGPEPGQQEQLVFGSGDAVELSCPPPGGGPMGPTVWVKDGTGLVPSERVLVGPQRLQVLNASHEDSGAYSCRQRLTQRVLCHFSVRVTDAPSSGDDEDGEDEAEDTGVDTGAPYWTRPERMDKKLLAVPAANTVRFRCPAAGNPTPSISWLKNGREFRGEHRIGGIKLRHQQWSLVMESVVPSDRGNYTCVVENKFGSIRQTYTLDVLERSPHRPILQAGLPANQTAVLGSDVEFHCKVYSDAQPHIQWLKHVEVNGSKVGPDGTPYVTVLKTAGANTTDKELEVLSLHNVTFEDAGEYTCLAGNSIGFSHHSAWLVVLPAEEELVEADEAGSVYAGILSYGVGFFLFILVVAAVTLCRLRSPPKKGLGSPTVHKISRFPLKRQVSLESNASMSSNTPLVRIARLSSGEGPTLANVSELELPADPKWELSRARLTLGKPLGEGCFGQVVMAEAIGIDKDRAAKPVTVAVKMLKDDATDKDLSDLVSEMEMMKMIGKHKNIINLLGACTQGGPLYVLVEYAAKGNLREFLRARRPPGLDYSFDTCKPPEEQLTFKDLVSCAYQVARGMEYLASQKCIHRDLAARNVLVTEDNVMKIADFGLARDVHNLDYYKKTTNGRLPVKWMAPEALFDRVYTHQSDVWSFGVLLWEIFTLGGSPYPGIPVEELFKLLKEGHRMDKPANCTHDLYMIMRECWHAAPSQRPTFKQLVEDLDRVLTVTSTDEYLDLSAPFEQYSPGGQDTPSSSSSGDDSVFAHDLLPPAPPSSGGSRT

Sequence of FGFR2 (P21802 22-821): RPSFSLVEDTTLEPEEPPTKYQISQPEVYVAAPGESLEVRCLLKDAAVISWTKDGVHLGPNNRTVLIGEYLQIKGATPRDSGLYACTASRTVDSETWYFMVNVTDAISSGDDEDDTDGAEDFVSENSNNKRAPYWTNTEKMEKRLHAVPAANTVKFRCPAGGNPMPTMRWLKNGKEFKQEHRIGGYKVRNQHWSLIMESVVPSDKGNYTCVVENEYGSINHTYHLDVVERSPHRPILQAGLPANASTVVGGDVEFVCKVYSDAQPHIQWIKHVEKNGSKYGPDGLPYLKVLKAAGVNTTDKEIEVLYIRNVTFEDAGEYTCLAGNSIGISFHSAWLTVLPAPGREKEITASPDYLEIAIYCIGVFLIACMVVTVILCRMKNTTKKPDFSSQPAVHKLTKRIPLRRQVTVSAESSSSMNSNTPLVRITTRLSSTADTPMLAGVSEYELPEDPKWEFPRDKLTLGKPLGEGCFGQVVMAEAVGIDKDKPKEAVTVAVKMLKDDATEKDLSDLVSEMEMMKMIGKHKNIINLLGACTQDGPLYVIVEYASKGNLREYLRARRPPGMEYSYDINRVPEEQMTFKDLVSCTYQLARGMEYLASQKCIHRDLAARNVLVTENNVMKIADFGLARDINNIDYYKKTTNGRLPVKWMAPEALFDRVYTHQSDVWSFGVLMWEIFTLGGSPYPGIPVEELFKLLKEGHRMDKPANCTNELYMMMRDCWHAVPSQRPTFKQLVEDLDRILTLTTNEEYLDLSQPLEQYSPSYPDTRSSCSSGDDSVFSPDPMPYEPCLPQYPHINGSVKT
Sequence of FGFR3 (V555M) (P22607 23-806 V555M): as the sequence (P22607 23-806) above, with V533M counted along it
Sequence of FGFR3-BAIAP2L1 Ba/F3 cells (P22607 23-806 limits assumed, change not shown): as the sequence (P22607 23-806) above
Sequence of FGFR1 (P11362 22-822): as the sequence (P11362 22-822 limits assumed, change not shown) above
Sequence of FGFR4 (P22455 22-802): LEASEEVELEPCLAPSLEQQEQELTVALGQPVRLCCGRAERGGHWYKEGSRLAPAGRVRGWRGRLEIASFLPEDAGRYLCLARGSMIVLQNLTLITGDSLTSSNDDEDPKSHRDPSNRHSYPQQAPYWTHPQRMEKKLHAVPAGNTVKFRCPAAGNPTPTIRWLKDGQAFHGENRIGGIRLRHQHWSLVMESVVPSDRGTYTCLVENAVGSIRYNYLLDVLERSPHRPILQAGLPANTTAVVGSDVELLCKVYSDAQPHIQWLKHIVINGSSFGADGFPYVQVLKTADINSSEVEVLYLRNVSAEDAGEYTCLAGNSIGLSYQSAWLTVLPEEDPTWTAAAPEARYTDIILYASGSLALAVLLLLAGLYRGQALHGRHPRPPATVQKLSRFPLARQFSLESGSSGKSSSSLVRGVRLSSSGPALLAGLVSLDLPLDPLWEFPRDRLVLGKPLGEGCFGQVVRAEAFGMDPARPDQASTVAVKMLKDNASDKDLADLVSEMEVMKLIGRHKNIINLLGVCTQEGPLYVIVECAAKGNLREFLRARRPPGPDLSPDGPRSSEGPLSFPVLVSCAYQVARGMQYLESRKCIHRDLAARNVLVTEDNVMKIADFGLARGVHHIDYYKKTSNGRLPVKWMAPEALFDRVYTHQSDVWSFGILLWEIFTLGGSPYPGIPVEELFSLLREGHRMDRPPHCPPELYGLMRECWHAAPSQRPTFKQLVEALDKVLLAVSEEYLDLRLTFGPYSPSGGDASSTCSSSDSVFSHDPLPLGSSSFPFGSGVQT

Take `C[C@@H](Oc1ccc2[nH]nc(-c3ccc(N4CCN(S(C)(=O)=O)CC4=O)nc3)c2c1)c1c(Cl)cncc1Cl` [Example 39, 1-[5-[5-[(1R)-1-(3,5-dichloro-4-pyridyl)ethoxy]-1H-indazol-3-yl]-2-pyridyl]-4-methylsulfonyl-piperazin-2-one]: the “Ba/F3 FGFR1/FGFR3 Selectivity” value in test [1] was 16. In addition, the IC50 was in the range of 1 to 20 nM in test [1] and 100 to 300 nM at FGFR1-BCR Ba/F3 cells. Further, the Kd is 20 to 100 nM on FGFR2; 1 to 20 nM at FGFR3 (V555M); 1 to 20 nM on FGFR4; 20 to 100 nM on FGFR1; 1 to 20 nM on FGFR3.
Take `C[C@@H](Oc1ccc2[nH]nc(-c3ccc(N4CCC5(CCC(=O)N5C)CC4)nc3)c2c1)c1c(Cl)cncc1Cl` [Example 40, 8-[5-[5-[(1R)-1-(3,5-dichloro-4-pyridyl)ethoxy]-1H-indazol-3-yl]-2-pyridyl]-1-methyl-1,8-diazaspiro[4.5]decan-2-one]: the “Ba/F3 FGFR1/FGFR3 Selectivity” value in test [1] is listed as 30. Moreover, the IC50 in test [1] fell in the range of 1 to 20 nM; at FGFR1-BCR Ba/F3 cells, 20 to 100 nM. Besides, the dissociation constant Kd at FGFR2, on FGFR3 (V555M), at FGFR4, on FGFR1 and on FGFR3 was 1 to 20 nM in each case.
In the case of `C[C@@H](Oc1ccc2[nH]nc(-c3cnc(N4CCC5(CCC(=O)N5C)CC4)c(F)c3)c2c1)c1c(Cl)cncc1Cl` [Example 43, 8-[5-[5-[(1R)-1-(3,5-dichloro-4-pyridyl)ethoxy]-1H-indazol-3-yl]-3-fluoro-2-pyridyl]-1-methyl-1,8-diazaspiro[4.5]decan-2-one], the “Ba/F3 FGFR1/FGFR3 Selectivity” value in test [1] was 10. Besides, the values for the IC50 (in test [1]; at FGFR1-BCR Ba/F3 cells) were 1 to 20 nM and 20 to 100 nM, respectively. The Kd at FGFR2, at FGFR3 (V555M), at FGFR4, on FGFR1 and on FGFR3 was 1 to 20 nM throughout.
Regarding `C[C@@H](Oc1ccc2[nH]nc(-c3cnc(N4CCC5(CC4)C(=O)NCCN5C)c(F)c3)c2c1)c1c(Cl)cncc1Cl` [Example 44, 9-[5-[5-[(1R)-1-(3,5-dichloro-4-pyridyl)ethoxy]-1H-indazol-3-yl]-3-fluoro-2-pyridyl]-1-methyl-1,4,9-triazaspiro[5.5]undecan-5-one], the values for the IC50 (in test [1]; at FGFR1-BCR Ba/F3 cells) were 1 to 20 nM and 20 to 100 nM, respectively. For the same compound, the Kd on FGFR2, at FGFR3 (V555M), at FGFR4, at FGFR1 and at FGFR3 was 1 to 20 nM in each case.
On to `C[C@@H](Oc1ccc2[nH]nc(-c3cnc(N4CCC5(CC4)CNC(=O)N5)nc3)c2c1)c1c(Cl)cncc1Cl` [Example 53, 8-[5-[5-[(1R)-1-(3,5-dichloro-4-pyridyl)ethoxy]-1H-indazol-3-yl]pyrimidin-2-yl]-1,3,8-triazaspiro-[4.5]decan-2-one], for which, in test [1], the “Ba/F3 FGFR1/FGFR3 Selectivity” value is on record as 11. In addition, the IC50 lay within 20 to 100 nM in test [1] and 100 to 300 nM on FGFR1-BCR Ba/F3 cells. For the same compound, the Kd was in the range of 20 to 100 nM at FGFR2; 1 to 20 nM at FGFR3 (V555M); 1 to 20 nM on FGFR4; 20 to 100 nM at FGFR1; 1 to 20 nM on FGFR3.
`C[C@@H](Oc1ccc2[nH]nc(-c3cnc(N4CCC5(CCNC5=O)CC4)nc3)c2c1)c1c(Cl)cncc1Cl` [Example 55, 8-[5-[5-[(1R)-1-(3,5-dichloro-4-pyridyl)ethoxy]-1H-indazol-3-yl]pyrimidin-2-yl]-2,8-diazaspiro-[4.5]decan-1-one]: the “Ba/F3 FGFR1/FGFR3 Selectivity” value in test [1] was 16. Moreover, the IC50 is 20 to 100 nM in test [1] and above 300 nM at FGFR1-BCR Ba/F3 cells. Also, the Kd lay within 20 to 100 nM on FGFR2; 1 to 20 nM on FGFR3 (V555M); 1 to 20 nM at FGFR4; 20 to 100 nM at FGFR1; 1 to 20 nM at FGFR3.
With `C[C@@H](Oc1ccc2[nH]nc(-c3cnc(N4CCC5(CCCN5)CC4)nc3)c2c1)c1c(Cl)cncc1Cl` [Example 56, 8-[5-[5-[(1R)-1-(3,5-dichloro-4-pyridyl)ethoxy]-1H-indazol-3-yl]pyrimidin-2-yl]-1,8-diazaspiro[4.5]decane], the “Ba/F3 FGFR1/FGFR3 Selectivity” value in test [1] is listed as 5. The IC50 in test [1] is 20 to 100 nM; on FGFR1-BCR Ba/F3 cells it was above 300 nM. Moreover, the Kd at FGFR2 was 20 to 100 nM; at FGFR3 (V555M), 1 to 20 nM; on FGFR4, 1 to 20 nM; on FGFR1 it was 1 to 20 nM; at FGFR3, 1 to 20 nM.
Turning to `C[C@@H](Oc1ccc2[nH]nc(-c3cnc(N4CCC5(CC4)CCS(=O)(=O)C5)nc3)c2c1)c1c(Cl)cncc1Cl` [Example 57, 8-[5-[5-[(1R)-1-(3,5-dichloro-4-pyridyl)ethoxy]-1H-indazol-3-yl]pyrimidin-2-yl]-2λ^6-thia-8-azaspiro[4.5]decane 2,2-dioxide], the “Ba/F3 FGFR1/FGFR3 Selectivity” value in test [1] is 15. Also, the results for the IC50 (in test [1]; on FGFR1-BCR Ba/F3 cells) were 1 to 20 nM and 100 to 300 nM, respectively. Moreover, the Kd at FGFR2 lay in the range of 20 to 100 nM; on FGFR3 (V555M), 1 to 20 nM; on FGFR4 it was 1 to 20 nM; at FGFR1, 20 to 100 nM; on FGFR3, 1 to 20 nM.
`C[C@@H](Oc1ccc2[nH]nc(-c3cnc(N4CCC5(CC4)C(=O)NCCN5C)nc3)c2c1)c1c(Cl)cncc1Cl` [Example 58, 9-[5-[5-[(1R)-1-(3,5-dichloro-4-pyridyl)ethoxy]-1H-indazol-3-yl]pyrimidin-2-yl]-1-methyl-1,4,9-triazaspiro[5.5]undecan-5-one]: in test [1], the “Ba/F3 FGFR1/FGFR3 Selectivity” value was 11. Besides, the IC50 fell in the range of 20 to 100 nM in test [1] and 100 to 300 nM at FGFR1-BCR Ba/F3 cells. In addition, the Kd lay within 20 to 100 nM at FGFR2; 1 to 20 nM on FGFR3 (V555M); 1 to 20 nM at FGFR4; 20 to 100 nM at FGFR1; 1 to 20 nM on FGFR3.
For the compound `C[C@@H](Oc1ccc2[nH]nc(-c3cnc(N4CCCN(C(N)=O)CC4)nc3)c2c1)c1c(Cl)cncc1Cl` [Example 62, 4-[5-[5-[(1R)-1-(3,5-Dichloro-4-pyridyl)ethoxy]-1H-indazol-3-yl]pyrimidin-2-yl]-1,4-diazepane-1-carboxamide], the “Ba/F3 FGFR1/FGFR3 Selectivity” value in test [1] came out at 8. In addition, the IC50 in test [1] was 20 to 100 nM; at FGFR1-BCR Ba/F3 cells, above 300 nM. Further, the Kd was in the range of 20 to 100 nM at FGFR2; 1 to 20 nM on FGFR3 (V555M); 1 to 20 nM on FGFR4; 20 to 100 nM on FGFR1; 1 to 20 nM at FGFR3.
Regarding `C[C@@H](Oc1ccc2[nH]nc(-c3cnc(N4CCCN(S(C)(=O)=O)CC4)nc3)c2c1)c1c(Cl)cncc1Cl` [Example 63, 5-[(1R)-1-(3,5-Dichloro-4-pyridyl)ethoxy]-3-[2-(4-methylsulfonyl-1,4-diazepan-1-yl)pyrimidin-5-yl]-1H-indazole], the “Ba/F3 FGFR1/FGFR3 Selectivity” value in test [1] is given as 16. For the same compound, the figures for the IC50 (in test [1]; on FGFR1-BCR Ba/F3 cells) were 20 to 100 nM and above 300 nM, respectively. For the same compound, the Kd was 20 to 100 nM on FGFR2; 1 to 20 nM at FGFR3 (V555M); 1 to 20 nM at FGFR4; 20 to 100 nM on FGFR1; 1 to 20 nM at FGFR3.
For the compound `C[C@@H](Oc1ccc2[nH]nc(-c3cnn(C4CCNCC4)c3)c2c1)c1c(Cl)cncc1Cl` [Example 64, 5-[(1R)-1-(3,5-dichloro-4-pyridyl)ethoxy]-3-[1-(4-piperidyl)pyrazol-4-yl]-1H-indazole], in test [1], the “Ba/F3 FGFR1/FGFR3 Selectivity” value is 16. The IC50 is 1 to 20 nM in test [1] and 100 to 300 nM on FGFR1-BCR Ba/F3 cells. Further, the equilibrium dissociation constant (Kd) on FGFR2, at FGFR3 (V555M), at FGFR4, on FGFR1 and on FGFR3 was 1 to 20 nM in each case.

These data come from patent US20240109865A1, “INDAZOLE COMPOUNDS AS KINASE INHIBITORS” (TYRA BIOSCIENCES, INC., priority 2020, published 2024).
